From PMC4199632, “Exploring the Anti-Cancer Activity of Novel Thiosemicarbazones Generated through the Combination of Retro-Fragments: Dissection of Critical Structure-Activity Relationships” (PLoS ONE, 2014)

Experiments:
[1] = tested on: HeLa cervical carcinoma cells; experiment: Proliferation assay (crystal violet, 72 h); assay type: cell-based; settings: Homo sapiens, 72 h incubation, mean ±SD (3 experiments)
Protocol: (§1) The human cancer cell types (neuroepithelioma (SK-N-MC), colon cancer (HCT116 with wild-type p53 (p53^+/+)), Burkitt's lymphoma (Raji) and cervical carcinoma (HeLa)) cells and normal human dermal fibroblasts (NHDF) were obtained from the American Type Culture Collection (ATCC, Manassas, VA, USA). HCT116 null p53 (p53^−/−) cells were obtained from the Maria Sklodowska-Curie Memorial Cancer Center and Institute of Oncology, Poland.
(§2) The SK-N-MC cells were cultured in minimum essential medium (MEM; Life Technologies, Grand Island, New York, USA) containing 10% (v/v) fetal bovine serum (FBS; Life Technologies), 1 mM sodium pyruvate (Life Technologies), 1% (v/v) non-essential amino acids (Life Technologies), 2 mM L-glutamine (Life Technologies), 100 U/mL penicillin (Life Technologies), 100 µg/mL streptomycin (Life Technologies) and 0.28 µg/mL fungizone (Bristol Myers Squibb Pharmaceuticals, Montreal, Canada). The HCT116 and NHDF cells were grown in Dulbecco's modified Eagle's medium (DMEM; Sigma-Aldrich) supplemented with 12% (v/v) heat-inactivated FBS (HCT116; Life Technologies) or 15% (v/v) FBS (NHDF; Life Technologies), 100 µg/mL of gentamicin (Polfa Warszawa S.A., Warsaw, Poland), 100 µg/mL of streptomycin (Polfa) and 100 U/mL of penicillin (Polfa). The Raji and HeLa cells were cultured in Roswell Park Memorial Institute medium (RPMI-1640; Sigma-Aldrich) with the addition of 10% (v/v) heat-inactivated FBS (Life Technologies) and the supplements described for SK-N-MC cells above. All cell lines were cultured under standard conditions at 37°C in a humidified atmosphere at 5% CO2 and were subcultured every 3–4 days as required.
(§3) The cells were seeded in 96-well plates (SK-N-MC: 1.5×10^4 cells/well; HeLa: 5.0×10^3 cells/well; Raji: 3.0×10^3 cells/well; HCT116: 3.5×10^3 cells/well; NHDF: 3.0×10^3 cells/well) 24 h prior to the addition of the novel compounds. The assays were performed using a 72 h (SK-N-MC, Raji, HeLa) or 96 h (HCT 116, NHDF) incubation period with the agents at 37°C. […] Additionally, DFO and Dp44mT were included as positive controls in all experiments as their activity is well characterized, [42], [50].
(§4) Chelator stock solutions were prepared in DMSO and diluted in media so that the final [DMSO] <0.05%. The results were expressed as a percentage of the control and the resulting IC50 values were calculated using GraphPad Prism 5 (GraphPad Software, Inc., La Jolla, CA, USA). The IC50 was defined as the concentration necessary to reduce the absorbance to 50% of the untreated control. Each individual compound was tested in triplicate in a single experiment, with each experiment being repeated three times. After incubation of HCT 116 and NHDF cells with the tested compounds, 20 µL of the CellTiter 96 Aqueous One Solution - MTS (Promega, Madison, WI, USA) solution was added to each well (with 100 µL of DMEM without phenol red) and incubated for 1 h/37°C. The optical density of the samples was analyzed at 490 nm.
(§5) MTT (3-[4,5-dimethylthiazol-2-yl]-2,5-diphenyltetrazolium bromide) was used to evaluate the anti-proliferative effects of the chelators in SK-N-MC and Raji cells. Following incubation with the investigated compounds, 10 µL of MTT (5 mg/mL in PBS; Sigma-Aldrich) was added to each well. After a 2 h (SK-N-MC) or 4 h (Raji) incubation, the plates were centrifuged, and the cells were lysed with 100 µL of 10% SDS-50% isobutanol in 0.01 M HCl (SK-N-MC) or DMSO (Raji). The absorbance was measured at 570 nm. The anti-proliferative effects of these novel agents on HeLa cells were estimated using crystal violet staining (0.5% crystal violet solution for 10 min). Finally, the wells were rinsed with water and the cells were lysed with 2% SDS. The optical density of the samples was analyzed at 595 nm.

[2] = tested on: HCT116 p53−/− colon cancer cells; experiment: Proliferation assay (MTS, 96 h); assay type: cell-based, human; settings: Homo sapiens, HCT-116, 96 h, 96 h incubation, MTS; mean ±SD (3 experiments)
Protocol: as §1, §2, §3, §4

[3] = tested on: HCT116 p53+/+ colon cancer cells; experiment: Proliferation assay (MTS, 96 h); assay type: cell-based, human; settings: Homo sapiens, HCT-116; 96 h incubation, MTS; mean ±SD (3 experiments)
Protocol: as §1, §2, §3, §4

[4] = tested on: Raji Burkitt's lymphoma cells; experiment: Proliferation assay (MTT, 72 h); assay type: cell-based; settings: Homo sapiens, 72 h incubation, mean ±SD (3 experiments)
Protocol: as §1, §2, §3, §4, §5

[5] = tested on: SK-N-MC neuroepithelioma cells; experiment: Proliferation assay (MTT, 72 h); assay type: cell-based; settings: Homo sapiens, 72 h incubation, mean ±SD (3 experiments)
Protocol: as §1, §2, §3, §4, §5

[6] = tested on: SK-N-MC cells; experiment: Mobilization of cellular 59Fe (59Fe efflux); assay type: cell-based, human; settings: chelator 25 µM; for 59Fe mobilization (% of cellular 59Fe released): 3 h/37°C, prelabeled SK-N-MC cells, control medium 4±1%
Protocol: (§6) The iron transport protein, Tf (Sigma-Aldrich), was labeled with ^59Fe (PerkinElmer Life and Analytical Sciences, Boston, MA) to form ^59Fe2-Tf using standard methods, [7]. Unbound ^59Fe was removed by passage through a Sephadex G25 column and was followed by exhaustive dialysis, [7].
To examine the ability of the novel chelators to mobilize ^59Fe from SK-N-MC cells, ^59Fe efflux experiments were performed using established techniques, [51]. The monolayer of SK-N-MC cells was prelabeled for 3 h at 37°C in MEM containing ^59Fe2-Tf (0.75 µM). Cells were then washed four times with ice-cold PBS and incubated for a further 3 h at 37°C with medium alone (the control) or medium containing the chelator (25 µM). After this incubation, the overlying medium that contained the released ^59Fe was separated from the cells using a Pasteur pipette. Radioactivity was measured in both the cells and supernatant using a γ-scintillation counter (Wallac Wizard 3, Turku, Finland). In these studies, the novel ligands were compared to the previously characterized chelators, DFO and Dp44mT, as their ability to mobilize cellular ^59Fe has been extensively examined in these cells, [12], [17], [18], [50].
Figure 6 Effect of (A) series 1, (B) series 2, (C) series 3, (D) series 4, (E) series 5 and (F) series 6 chelators, relative to the controls DFO and Dp44mT, on ^59Fe mobilization from prelabeled SK-N-MC cells. Cells were incubated for 3 h/37°C with ^59Fe-transferrin (0.75 µM), washed 4 times with ice-cold PBS and then reincubated for 3 h/37°C in the presence or absence of the chelators (25 µM). Release of ^59Fe was then assessed using a γ-scintillation counter. Results are mean ±SD (3 experiments).

[7] = tested on: normal human dermal fibroblast (NHDF) cells; experiment: Proliferation assay (MTS, 96 h), normal mortal cells; assay type: cell-based; settings: Homo sapiens, NHDF, 96 h, 96 h incubation, mean ±SD (3 experiments)
Protocol: as §1, §2, §3, §4

[8] = tested on: SK-N-MC cells; experiment: Inhibition of cellular 59Fe uptake from 59Fe2-Tf; assay type: cell-based, human; settings: chelator 25 µM
Protocol: as §6
The ability of the chelators to prevent the cellular uptake of ^59Fe from ^59Fe2-Tf was examined using standard methods, [14], [17], [18], [50]. A monolayer of SK-N-MC cells was incubated with medium containing ^59Fe2-Tf (0.75 µM) and the chelator (25 µM) for 3 h at 37°C. The medium was then removed and the cells were washed four times with ice-cold PBS. The cells were then incubated for 30 min at 4°C with the general protease, Pronase (1 mg/mL; Sigma-Aldrich), to remove membrane-bound ^59Fe. The cells were removed using a plastic spatula and centrifuged at 14,000 rpm/1 min to separate internalized from membrane-bound ^59Fe. The cell pellet was resuspended in 1 mL of PBS and the internalized ^59Fe was measured on a γ-scintillation counter. Internalized ^59Fe uptake was calculated as a percentage of the control (medium alone). Again, the novel ligands were compared to DFO and Dp44mT as their ability to inhibit cellular ^59Fe uptake has been extensively characterized using SK-N-MC cells, [14], [17], [18], [50].
Figure 8 Effect of (A) series 1, (B) series 2, (C) series 3, (D) series 4, (E) series 5 and (F) series 6 chelators, relative to the controls DFO and Dp44mT, on ^59Fe uptake from ^59Fe-transferrin by SK-N-MC cells. Cells were incubated for 3 h/37°C with ^59Fe-transferrin (0.75 µM) in the presence or absence of the chelators (25 µM). At the end of this incubation, cells were washed 4 times with ice-cold PBS. Internalization of ^59Fe was assessed by incubation for 30 min/4°C with the protease, Pronase (1 mg/mL). Cellular ^59Fe was then assessed using a γ-scintillation counter. Results are mean ±SD (3 experiments).

[9] = parameters: method as in PMID 17851637, PMID 18217206, PMID 15148626; settings: clinical trials; cited from earlier work

SMILES | IC50 [1] [µM] | IC50 [2] [µM] | IC50 [3] [µM] | IC50 [4] [µM] | IC50 [5] [µM] | 59Fe mobilization (% of cellular 59Fe released) [6] | IC50 [7] [µM] | Inhibition of 59Fe uptake compared with controls [8] | 59Fe mobilization efficacy compared with controls ([6]; SK-N-MC cells) | Side effects upon administration [9] | melting point [°C] | Internalized 59Fe uptake from 59Fe2-Tf (% of the control) ([8]; 59Fe2-Tf 0.75 µM, 3 h/37°C)
CCN1CCN(C(=S)N/N=C/c2c(O)ccc3cccnc23)CC1 [4a] | 11.3 ± 1.6 | 20.3 ± 0.9 | 20.2 ± 0.3 | 3.35 ± 1.11 | 5.09 ± 0.47 | 31–39% | 12.1 ± 4.2 | – | – | – | – | –
Oc1ccc2cccnc2c1/C=N/NC(=S)N1CCOCC1 [4c] | 10.2 ± 1.2 | 19.8 ± 4.9 | 20.1 ± 0.3 | 3.53 ± 1.87 | 4.97 ± 0.95 | 31–39% | > 25 | – | – | – | – | –
S=C(N/N=C/c1ccc2ccccc2n1)N1CCN(c2ccccn2)CC1 [2d] | 5.14 ± 2.87 | 0.27 ± 0.16 | 0.39 ± 0.15 | 0.05 ± 0.02 | 0.52 ± 0.16 | – | 0.032 ± 0.008 | comparable inhibition of ^59Fe uptake to that of DFO | comparable release of ^59Fe relative to DFO | – | – | –
NC(=S)NN=Cc1ncccc1N [Triapine, 3-aminopyridine-2-carboxaldehyde thiosemicarbazone] | – | – | – | – | – | – | – | – | – | methemoglobin formation and hypoxia | – | –
Oc1ccccc1/C=N/NC(=S)N1CCN(c2ccccc2)CC1 [6b] | 5.8 ± 0.48 | 8.86 ± 1.46 | 6.9 ± 2.3 | 1.96 ± 0.85 | 5.13 ± 0.51 | – | 13.5 ± 4.8 | – | – | – | 206 to 207 | –
S=C(NN=C(c1ccccn1)c1ccccn1)N1CCOCC1 [1c] | 2.21 ± 0.47 | 0.014 ± 0.006 | 0.014 ± 0.005 | 0.003 ± 0.004 | 1.21 ± 0.35 | 31–39% | 0.016 ± 0.006 | – | – | – | – | 3.6–11.5%
